Source: US20070015823A1, “Ambruticin VS compounds” (priority 2004, published 2007)
Values after ≈ are worked out from the molar mass of the structure shown.

Legend:
Candida albicans = conditions: 50% growth inhibition, range = minimum and maximum of multiple assays; for MIC C. albicans 24433: strain 24433; for MIC C. albicans 90028: strain 90028
Microsporum gypseum = test: Dermatophyte broth microdilution, NCCLS M38-A; format: cell-based
Cryptococcus neoformans = test: Broth microdilution antifungal susceptibility, NCCLS M38-A; conditions: 50% growth inhibition, range = minimum and maximum of multiple assays; for MIC C. neoformans 97-14: strain 97-14; for MIC C. neoformans 11239: strain 11239; for MIC C. neoformans 11240: strain 11240
[1] = tested on: Trichophyton mentagrophytes; test: Dermatophyte broth microdilution, NCCLS M38-A; format: cell-based
A. fumigatus ATCC 204305 = test: Broth microdilution antifungal susceptibility, NCCLS M38-A; format: cell-based, Aspergillus fumigatus; conditions: minimal concentration inhibiting >95% growth; average of at least two assays (except I-l and I-x)
Trichophyton rubrum = test: Dermatophyte broth microdilution, NCCLS M38-A; format: cell-based
Histoplasma capsulatum = format: cell-based
Epidermophyton floccosum = test: Dermatophyte broth microdilution, NCCLS M38-A; format: cell-based
Blastomyces dermatitidis = test: Broth microdilution antifungal susceptibility, NCCLS M38-A; format: cell-based
[2] = tested on: Trichophyton interdigitale; test: Dermatophyte broth microdilution, NCCLS M38-A; format: cell-based
Microsporum canis = test: Dermatophyte broth microdilution, NCCLS M38-A; format: cell-based
S. apiospermum = test: Broth microdilution antifungal susceptibility, NCCLS M38-A; format: cell-based, Scedosporium apiospermum
A. flavus ATCC 204304 = test: as above; format: cell-based, Aspergillus flavus; conditions: minimal concentration inhibiting >95% growth; average of at least two assays (except I-l and I-x)
Fusarium solani = test: as above; format: cell-based; conditions: strain 96-1; 50% growth inhibition; range = minimum and maximum of multiple assays

Row | Compound | MIC C. albicans 24433 (Candida albicans) | MIC C. albicans 90028 (Candida albicans) | MIC0 Mg (Microsporum gypseum) | MIC C. neoformans 97-14 (Cryptococcus neoformans) | MIC C. neoformans 11239 (Cryptococcus neoformans) | MIC C. neoformans 11240 (Cryptococcus neoformans) | MIC0 Tm [1] | MIC0 A. fumigatus ATCC 204305 (A. fumigatus ATCC 204305) | MIC0 Tr (Trichophyton rubrum) | MIC H. capsulatum G217B (Histoplasma capsulatum) | MIC H. capsulatum GS20 (Histoplasma capsulatum) | MIC0 Ef (Epidermophyton floccosum) | MIC B. dermatitidis Gu (Blastomyces dermatitidis) | MIC B. dermatitidis Kr (Blastomyces dermatitidis) | MIC B. dermatitidis V (Blastomyces dermatitidis) | MIC S. apiospermum 94-54 (S. apiospermum) | MIC S. apiospermum 98-38 (S. apiospermum) | MIC S. apiospermum 98-89 (S. apiospermum) | MIC0 A. flavus ATCC 204304 (A. flavus ATCC 204304) | MIC F. solani 96-1 (Fusarium solani) | further results
1 | CC[C@H]1O[C@@H](/C(C)=C/[C@H](C)/C=C/[C@H]2[C@@H](C)[C@@H]2/C=C/[C@@H]2O[C@H](CC(=O)O)C[C@H](N(CC)CC)[C@H]2O)CC=C1C [I-z, (5S,6R)-5-(diethylamino)-6-hydroxypolyangioic acid] | >32 µg/mL | >32 µg/mL | 1.58 µg/mL | 0.5 to 1 µg/mL | 0.25 to 0.5 µg/mL | 0.5 µg/mL (≈ 0.944 µM) | 4 µg/mL | 2.1 µg/mL | 1.25 µg/mL | <0.19 µg/mL | <0.19 µg/mL | 4 µg/mL | >12.5 µg/mL | >12.5 µg/mL | >12.5 µg/mL | >16 µg/mL | >16 µg/mL | 0.25 to 0.5 µg/mL | 2.2 µg/mL | >16 µg/mL | MIC0 Ti [2]: 0.79 µg/mL; MIC0 Mc (Microsporum canis): 2 µg/mL
2 | CC[C@H]1O[C@@H](/C(C)=C/[C@H](C)/C=C/[C@H]2[C@@H](C)[C@@H]2/C=C/[C@@H]2O[C@H](CC(N)=O)C[C@H](N(C)C)[C@H]2O)CC=C1C [I-hh, (5S,6R)-5-(dimethylamino)polyangiamide] | 32 µg/mL (≈ 63.9 µM) | 32 µg/mL (≈ 63.9 µM) | 1.25 µg/mL | 1 µg/mL (≈ 2 µM) | 1 µg/mL (≈ 2 µM) | 1 µg/mL (≈ 2 µM) | 2.82 µg/mL | 1 µg/mL | 2.51 µg/mL |  |  | 2.82 µg/mL |  |  |  | 32 µg/mL (≈ 63.9 µM) | 32 µg/mL (≈ 63.9 µM) | 1 to 2 µg/mL | 2 µg/mL | 16 µg/mL (≈ 32 µM) | MIC0 Ti [2]: 3.17 µg/mL; MIC0 Mc (Microsporum canis): 0.7 µg/mL
3 | CC[C@H]1O[C@@H](/C(C)=C/[C@H](C)/C=C/[C@H]2[C@@H](C)[C@@H]2/C=C/[C@@H]2O[C@H](CCO)C[C@H](N(C)C)[C@H]2O)CC=C1C [I-ff, (5S,6R)-5-(dimethylamino)polyangi-1,6-diol] | 32 µg/mL (≈ 65.6 µM) | 32 µg/mL (≈ 65.6 µM) |  |  |  |  |  | 2.07 µg/mL |  | <0.19 µg/mL | <0.19 µg/mL |  | >12.5 µg/mL | >12.5 µg/mL | >12.5 µg/mL | 32 µg/mL (≈ 65.6 µM) | 16 µg/mL (≈ 32.8 µM) | 0.5 µg/mL (≈ 1.03 µM) | 1.76 µg/mL | 8 to 16 µg/mL | MIC0 Blastomyces dermatitidis 04-2167 (Blastomyces dermatitidis): 0.06 µg/mL; MIC0 Blastomyces dermatitidis 04-2508 (Blastomyces dermatitidis): 0.06 µg/mL; MIC0 Blastomyces dermatitidis 04-2915 (Blastomyces dermatitidis): 0.06 µg/mL; MIC0 Blastomyces dermatitidis 05-106 (Blastomyces dermatitidis): 0.06 µg/mL; MIC0 Blastomyces dermatitidis 05-186 (Blastomyces dermatitidis): 0.06 µg/mL; MIC0 Blastomyces dermatitidis 05-1391 (Blastomyces dermatitidis): 0.06 µg/mL; MIC0 Blastomyces dermatitidis 05-1707 (Blastomyces dermatitidis): ≦0.015 μg/mL; MIC0 Blastomyces dermatitidis 05-1820 (Blastomyces dermatitidis): 0.03 µg/mL; MIC0 Blastomyces dermatitidis 05-1829 (Blastomyces dermatitidis): 0.06 µg/mL; MIC0 Blastomyces dermatitidis 05-2020 (Blastomyces dermatitidis): 0.06 µg/mL; MIC0 Blastomyces dermatitidis R-3529 (Blastomyces dermatitidis): 0.03 µg/mL; MIC0 Blastomyces dermatitidis R-35629 (Blastomyces dermatitidis): 0.06 µg/mL
4 | CC[C@H]1O[C@@H](/C(C)=C/[C@H](C)/C=C/[C@H]2[C@@H](C)[C@@H]2/C=C/[C@@H]2O[C@H](CC(=O)O)C[C@H](N(C)CCO)[C@H]2O)CC=C1C [I-n, (5S,6R)-5-(N-(2-hydroxyethyl)-methylamino)-6-hydroxypolyangioic acid] | >32 µg/mL | >32 µg/mL | 1.99 µg/mL | 0.25 µg/mL (≈ 0.47 µM) | 0.125 to 0.25 µg/mL | 0.125 to 0.25 µg/mL | 8 µg/mL | 1.4 µg/mL | 2.51 µg/mL | <0.19 µg/mL | <0.19 µg/mL | 2 µg/mL | 6.25 µg/mL (≈ 11.8 µM) | >12.5 µg/mL | >12.5 µg/mL | >16 µg/mL | >16 µg/mL | 0.125 to 0.25 µg/mL | 2 µg/mL | >16 µg/mL | MIC0 Ti [2]: 1.25 µg/mL; MIC0 Mc (Microsporum canis): 2.82 µg/mL
